Test: Tableting study: compression forces and crushing strength of tablets (eccentric tableting machine, Scleuninger-E apparatus)
Assay type: physicochemical
Settings: tablets of target weight 300 mg, flat-faced 9 mm punches, die wall lubricated with 5% (w/V) magnesium stearate in acetone; upper punch force differs per material (Table 1)
Description: The material obtained from Example 1 was tableted using an instrumented eccentric tableting machine (Korsch EK-0, Erweka Apparatebau, Heusenstamm, Germany) Flat-faced 9 mm punches were used and the die wall was lubricated using 5% (w/V) magnesium stearate in acetone before each compression. The target weights of tablets were 300 mg. Compression forces during the compression process were measured and the crushing strength of each tablet was measured using Scleuninger-E apparatus (Switzerland) (Table 1).

CC(=O)Nc1ccc(O)cc1 [Neat paracetamol, paracetamol]
Crushing strength: No tablet, no measurable
